# Measured values published in publication PMC8949366, “Synthesis of Marine Cyclopeptide Galaxamide Analogues as Potential Anticancer Agents” (Marine Drugs, 2022).
# Where “and” joins values, the source holds several entries; their conditions need not be identical. Equal values may be shown once. Entries after “also recorded” stand apart in the source; their conditions may differ. Read-outs that look alike come from different tables or passages of the source. Square brackets hold non-standard residues; d marks the D form. Peptide text beside a SMILES is read from it.
# What was measured:
# [1] = amide bond, 15-membered ring, PyBOP/DIEA, DCM, 0.375 mM, 25.0 °C
# [2] = tested on: A549; type: cell-based, human; settings: 72 h
# Description: (§1) Cell culture: MCF-7/MD-MAB-231 (human breast cancer cell line ATCC HTB-22/HTB-26), Hep G2 (human liver cancer cell line ATCC HB-8065), Hela (human cervical carcinoma cell line ATCC CCL-2), A459 (human lung cancer cell line ATCC CCL-185), and HUVEC (primary umbilical vein endothelial cell line ATCC PCS-100-010) were obtained from the Jinan Department of Pathology, University School of Medicine (Jinan University, Guangzhou, China). The cells were cultured in a Modified Eagle’s Medium (DMEM) including 10% fetal bovine serum, 1% penicillin-streptomycin, and antifungal agent, and cultured under standard conditions (5% CO2 atmosphere and temperature at 37 °C). The MTT method was used to evaluate the cytotoxicities of galaxamide and its analogues on the five cancerous cells. In this experiment, the number of regulated cells was 2 × 10^3 cells/well. Then, the cells, as well as galaxamide and its analogues of different concentrations (0, 2.5, 5, and 10 μg/mL), were seeded on a 96-well cell culture plate and cultured in a 37 °C, 5% CO2 incubator for 72 h. After that, 20 µL/well of MTT solution (5 mg/mL phosphate-buffered saline) was added and incubated for 5 h. The medium was discarded and replaced with 100 µL/well of DMSO to dissolve the formazan salt. The color intensity of the cell culture at 570 nm was measured using a microplate spectrophotometer (SpectroAma™ 250, Winooski, VT, USA).
# [3] = tested on: HUVEC; type: cell-based, human; settings: 72 h
# Description: as §1
# [4] = tested on: Hela; type: cell-based, human; settings: 72 h
# Description: as §1
# [5] = tested on: HepG2; type: cell-based, human; settings: 72 h
# Description: as §1
# [6] = tested on: MCF-7; type: cell-based, human; settings: 72 h
# Description: as §1
# [7] = tested on: MD-MBA-231; type: cell-based, human; settings: 72 h
# Description: as §1
# [8] = tested on: MCF-7 cells; experiment: Cell cycle distribution by propidium iodide staining / flow cytometry; type: cell-based, human; settings: 0, 2.5, 5, 10 µg/mL, 72 h
# Description: Therefore, propidium iodide (PI) staining method was used to further investigate the changes in the cell cycle distribution of MCF-7. In particular, MCF-7 cells were exposed to galaxamide, Z-3, and Z-6 with concentrations of 0, 2.5, 5, and 10 µg/mL for 72 h. Generally, the main effects of galaxamide, Z-3, and Z-6 on MCF-7 cells were in the G0/G1 phase. There was no obvious sub diploid peak in flow cytometry.
# (§2) The concentration of 1 × 10^4 cells per well of MCF-7 cells were seeded in 96-well plates. The cell cultures were added to the compounds with a concentration of 0, 2.5, 5, and 10 µg/mL, and incubated for 72 h. After that, 5 µL of Annexin V-fluorescein isothiocyanate (FITC) and 5 µL of PI were added for dual staining of the cells for analysis by FACS flow cytometry. Cell cycles and apoptotic cells were determined by counting the FITC-positive and PI-negative fractions.
# [9] = tested on: MCF-7 cells; experiment: Annexin V-FITC/PI double staining apoptosis, flow cytometry; type: cell-based, human; settings: 0, 2.5, 5, 10 µg/mL, 72 h
# Description: The Annexin V-FITC/PI double staining method was used to analyze the changes in the apoptosis of MCF-7 cells after 72 h of galaxamide, Z-3, and Z-6 exposure. […] At low concentrations, the effects of all the tested compounds were not obvious. When the concentration reached 10 μg/mL, the apoptotic effects of galaxamide, Z-3, and Z-6 on MCF-7 cells were more obvious in the late apoptotic state.
# as §2
# The apoptotic cells were quantified according to the instructions provided in an Annexin V-FITC (Sigma-Aldrich, St. Louis, MO, USA) cell apoptosis assay kit. Briefly, about 1.5 × 10^5 cells were plated in 96-well plates and treated with galaxamide and its representative analogues (0, 2.5, 5, and 10 µg/mL) for 48 h. The cells were then resuspended in a […] binding buffer. Afterward, […] of annexin V-fluorescein isothiocyanate (FITC) was added, followed by incubation in darkness at room temperature for 10 min. The cells were again resuspended in […] binding buffer and stained with […] PI. The prepared cells were then analyzed using a flow cytometry (Coulter Epics Elite, Miami, FL, USA). The cells in the FITC-positive and PI-negative fractions were regarded as apoptotic cells.
# [10] = tested on: MCF-7 cells; experiment: Hoechst 33,342 staining of nuclear morphology; type: cell-based, human; settings: 72 h
# Description: The morphological alteration of MCF-7 cells was analyzed by the method of Hoechst 33,342 staining (Figure 5). […] The pyknotic nuclei increased with the increasing concentration of these compounds.
# […] After that, the cell culture was washed with 1 mL of PBS and then added with 3 mL of 4% paraformaldehyde solution for 15 min. Then, 1 mL of the prepared Hoechst 33,342 staining solution was added. The resulting mixture was incubated at room temperature for 15 min in the dark.
compound,measurement,setting,value
CC(C)C[C@@H]1NC(=O)[C@@H]2CCCN2C(=O)[C@@H](CC(C)C)NC(=O)[C@@H]2CCCN2C(=O)[C@H](CC(C)C)NC1=O [Cyclo (Leu-Pro-D-Leu-Pro-Leu)],"ring closure, yield after HPLC",[1]; from H-Leu-Pro-dLeu-Pro-Leu-OH?,36.4%
"CC(C)C[C@@H]1NC(=O)[C@@H]2CCCN2C(=O)[C@H](CC(C)C)NC(=O)[C@@H]2CCCN2C(=O)[C@@H](CC(C)C)NC1=O [Compound Z-4, Cyclo (Leu-Pro-D-Leu-Pro-Leu)] (cyclo(LPL[dL]P))",IC50 A549,[2],9.85 ± 0.95 µg/mL
same,IC50 HUVEC,[3],>40 µg/mL
same,IC50 Hela,[4],7.38 ± 0.83 µg/mL
same,IC50 HepG2,[5],15.23 ± 1.14 µg/mL
same,IC50 MCF-7,[6],4.88 ± 0.58 µg/mL
same,IC50 MD-MBA-231,[7],22.09 ± 1.12 µg/mL
CC(C)C[C@@H]1NC(=O)[C@@H]2CCCN2C(=O)[C@@H](CC(C)C)NC(=O)[C@@H]2CCCN2C(=O)[C@@H](CC(C)C)NC1=O [Cyclo (Leu-Pro-D-Leu-Pro-D-Leu)],"ring closure, yield after HPLC",[1]; from H-dLeu-Pro-dLeu-Pro-Leu-OH?,54.6%
"CC(C)C[C@H]1NC(=O)[C@@H]2CCCN2C(=O)[C@@H](CC(C)C)NC(=O)[C@@H]2CCCN2C(=O)[C@@H](CC(C)C)NC1=O [Compound Z-8, Cyclo (D-Leu-Pro-D-Leu-Pro-D-Leu)] (cyclo(P[dL]P[dL][dL]))",IC50 A549,[2],15.88 ± 1.42 µg/mL
same,IC50 HUVEC,[3],>40 µg/mL
same,IC50 Hela,[4],7.97 ± 0.61 µg/mL
same,IC50 HepG2,[5],9.00 ± 0.83 µg/mL
same,IC50 MCF-7,[6],7.82 ± 1.18 µg/mL
same,IC50 MD-MBA-231,[7],20.16 ± 2.24 µg/mL
CC(C)C[C@@H]1NC(=O)[C@@H]2CCCN2C(=O)[C@H](CC(C)C)NC(=O)[C@@H]2CCCN2C(=O)[C@H](CC(C)C)NC1=O [Cyclo (Leu-Pro-Leu-Pro-Leu)],"ring closure, yield after HPLC",[1]; from H-Leu-Pro-Leu-Pro-Leu-OH?,35.5% and 53.9%
"CC(C)C[C@@H]1NC(=O)[C@@H](CC(C)C)NC(=O)[C@@H]2CCCN2C(=O)[C@H](CC(C)C)NC(=O)[C@@H]2CCCN2C1=O [Compound Z-3, Cyclo (Leu-Pro-Leu-Pro-Leu)] (cyclo(LPLP[dL]))",IC50 A549,[2],6.43 ± 0.43 µg/mL
same,IC50 HUVEC,[3],>40 µg/mL
same,IC50 Hela,[4],5.57 ± 0.45 µg/mL
same,IC50 HepG2,[5],5.05 ± 0.45 µg/mL
same,IC50 MCF-7,[6],2.25 ± 0.42 µg/mL
same,IC50 MD-MBA-231,[7],6.34 ± 0.60 µg/mL
same,Effect on cell cycle of MCF-7 (in words),[8],mainly blocked the growth of cells in the G0/G1 phase
same,Apoptosis of MCF-7 cells (in words),[9],significantly higher than those of galaxamide; also recorded: concentration-dependent apoptosis
same,Nuclear morphology of MCF-7 cells (in words),[10],the morphology of the nuclei was significantly changed
"CC(C)C[C@@H]1NC(=O)[C@H](CC(C)C)N(C)C(=O)[C@H](CC(C)C)NC(=O)[C@@H]2CCCN2C(=O)[C@H](CC(C)C)NC1=O [Compound Z-1, Cyclo (Leu-N-Me-Leu-Leu-Pro-Leu)]",IC50 A549,[2],4.92 ± 0.84 µg/mL
same,IC50 HUVEC,[3],>40 µg/mL
same,IC50 Hela,[4],11.56 ± 0.65 µg/mL
same,IC50 HepG2,[5],7.57 ± 0.17 µg/mL
same,IC50 MCF-7,[6],5.85 ± 1.28 µg/mL
same,IC50 MD-MBA-231,[7],17.81 ± 0.60 µg/mL
CC(C)C[C@@H]1NC(=O)[C@@H]2CCCN2C(=O)[C@@H](CC(C)C)NC(=O)[C@@H](CC(C)C)NC(=O)[C@@H]2CCCN2C1=O [Cyclo (D-Leu-Pro-Leu-Pro-D-Leu)],"ring closure, yield after HPLC",[1]; from H-dLeu-Pro-Leu-Pro-dLeu-OH?,34.5%
CC(C)C[C@H]1NC(=O)[C@@H]2CCCN2C(=O)[C@@H](CC(C)C)NC(=O)[C@@H]2CCCN2C(=O)[C@@H](CC(C)C)NC1=O [Cyclo (D-Leu-Pro-D-Leu-Pro-D-Leu)],"ring closure, yield after HPLC",[1]; from H-dLeu-Pro-dLeu-Pro-dLeu-OH?,46.2%
CC(C)C[C@@H]1NC(=O)[C@H](CC(C)C)N(C)C(=O)[C@H](CC(C)C)NC(=O)[C@@H]2CCCN2C(=O)[C@H](CC(C)C)NC1=O [Cyclo (Leu-N-Me-Leu-Leu-Pro-Leu)],"ring closure, yield after HPLC",[1]; from H-Leu-Pro-Leu-MeLeu-Leu-OH,40.7%
"CC(C)C[C@@H]1NC(=O)[C@@H]2CCCN2C(=O)[C@@H](CC(C)C)NC(=O)[C@@H]2CCCN2C(=O)[C@@H](CC(C)C)NC1=O [Compound Z-7, Cyclo (Leu-Pro-D-Leu-Pro-D-Leu)] (cyclo(L[dL]P[dL]P))",IC50 A549,[2],9.97 ± 1.00 µg/mL
same,IC50 HUVEC,[3],>40 µg/mL
same,IC50 Hela,[4],18.21 ± 1.35 µg/mL
same,IC50 HepG2,[5],13.85 ± 1.99 µg/mL
same,IC50 MCF-7,[6],13.28 ± 3.28 µg/mL
same,IC50 MD-MBA-231,[7],16.52 ± 1.70 µg/mL
"CC(C)C[C@@H]1NC(=O)[C@@H]2CCCN2C(=O)[C@@H](CC(C)C)NC(=O)[C@@H]2CCCN2C(=O)[C@H](CC(C)C)NC1=O [Compound Z-5, Cyclo (Leu-Pro-Leu-Pro-D-Leu)] (cyclo(LLP[dL]P))",IC50 A549,[2],9.50 ± 1.13 µg/mL
same,IC50 HUVEC,[3],>40 µg/mL
same,IC50 Hela,[4],12.12 ± 0.95 µg/mL
same,IC50 HepG2,[5],14.98 ± 0.93 µg/mL
same,IC50 MCF-7,[6],13.43 ± 1.96 µg/mL
same,IC50 MD-MBA-231,[7],8.48 ± 1.12 µg/mL
"CC(C)C[C@@H]1NC(=O)[C@@H]2CCCN2C(=O)[C@H](CC(C)C)NC(=O)[C@@H]2CCCN2C(=O)[C@H](CC(C)C)NC1=O [Compound Z-2, Cyclo (Leu-Pro-Leu-Pro-Leu)] (cyclo(LLPLP))",IC50 A549,[2],7.97 ± 2.06 µg/mL
same,IC50 HUVEC,[3],>40 µg/mL
same,IC50 Hela,[4],14.50 ± 0.36 µg/mL
same,IC50 HepG2,[5],11.95 ± 0.64 µg/mL
same,IC50 MCF-7,[6],4.68 ± 1.22 µg/mL
same,IC50 MD-MBA-231,[7],14.45 ± 1.10 µg/mL
"CC(C)C[C@@H]1NC(=O)[C@@H]2CCCN2C(=O)[C@@H](CC(C)C)NC(=O)[C@@H](CC(C)C)NC(=O)[C@@H]2CCCN2C1=O [Compound Z-6, Cyclo (D-Leu-Pro-Leu-Pro-D-Leu)] (cyclo(LP[dL][dL]P))",IC50 A549,[2],5.96 ± 0.41 µg/mL
same,IC50 HUVEC,[3],38.72 ± 0.67 µg/mL
same,IC50 Hela,[4],5.69 ± 0.37 µg/mL
same,IC50 HepG2,[5],2.91 ± 0.17 µg/mL
same,IC50 MCF-7,[6],1.65 ± 0.30 µg/mL
same,IC50 MD-MBA-231,[7],4.59 ± 0.27 µg/mL
same,Effect on cell cycle of MCF-7 (in words),[8],mainly blocked the growth of cells in the G0/G1 phase
same,Apoptosis of MCF-7 cells (in words),[9],significantly higher than those of galaxamide; also recorded: concentration-dependent apoptosis
same,Nuclear morphology of MCF-7 cells (in words),[10],the morphology of the nuclei was significantly changed
CC(C)C[C@@H]1NC(=O)[C@@H]2CCCN2C(=O)[C@H](CC(C)C)NC(=O)[C@@H]2CCCN2C(=O)[C@@H](CC(C)C)NC1=O [Cyclo (Leu-Pro-Leu-Pro-D-Leu)],"ring closure, yield after HPLC",[1]; from H-dLeu-Pro-Leu-Pro-Leu-OH?,58.9%
